In US9206130B2, “Quinoline derivatives as AXL kinase inhibitors” (Max-Planck-Gesellschaft zur Förderung der Wissenschaften …, priority 2008, dated 2015):

Assays:
[1] = target: T1, wild type AXL (wtAXL) receptor tyrosine kinase (Homo sapiens, UniProt P30530); test: NIH-3T3-AXL cellular tyrosine kinase assay (inhibition of AXL phosphorylation); type: cell-based; conditions: AXL phosphorylation in NIH-3T3-AXL (clone 22) cells, serum-depleted, 2 h with compound, immunoprecipitation / anti-phosphotyrosine blot
T1 construct: WtAXL cDNA was cloned into vector pLXSN(ESK) and transfected into Phoenix E packaging cells; expressed in transfected cells; host or cells: NIH3T3 N7 mouse fibroblasts, retrovirally infected (clone 22)
T1 sequence (P30530 26-894): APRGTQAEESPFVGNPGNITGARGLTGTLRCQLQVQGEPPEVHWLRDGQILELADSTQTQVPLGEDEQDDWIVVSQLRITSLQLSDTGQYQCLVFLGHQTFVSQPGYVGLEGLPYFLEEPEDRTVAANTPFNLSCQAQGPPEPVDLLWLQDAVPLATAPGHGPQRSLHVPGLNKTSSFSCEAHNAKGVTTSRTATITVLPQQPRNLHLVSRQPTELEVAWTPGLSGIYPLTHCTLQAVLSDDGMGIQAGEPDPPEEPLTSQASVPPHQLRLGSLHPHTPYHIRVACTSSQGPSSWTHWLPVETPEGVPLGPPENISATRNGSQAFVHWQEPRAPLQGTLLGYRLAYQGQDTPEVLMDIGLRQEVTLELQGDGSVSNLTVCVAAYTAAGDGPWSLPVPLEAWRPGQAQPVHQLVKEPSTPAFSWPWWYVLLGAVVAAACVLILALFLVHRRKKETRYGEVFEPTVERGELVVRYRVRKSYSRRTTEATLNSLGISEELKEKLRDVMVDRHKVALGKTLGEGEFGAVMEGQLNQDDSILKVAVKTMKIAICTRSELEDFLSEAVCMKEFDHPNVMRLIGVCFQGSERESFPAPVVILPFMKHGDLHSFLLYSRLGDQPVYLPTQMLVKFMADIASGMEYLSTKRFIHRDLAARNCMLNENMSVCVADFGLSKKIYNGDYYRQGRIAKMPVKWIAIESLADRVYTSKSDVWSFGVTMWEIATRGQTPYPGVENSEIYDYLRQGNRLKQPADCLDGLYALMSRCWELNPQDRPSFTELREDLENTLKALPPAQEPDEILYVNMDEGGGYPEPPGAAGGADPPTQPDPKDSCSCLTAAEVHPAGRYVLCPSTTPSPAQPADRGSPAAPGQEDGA
Summary of the method: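 NIH3T3 clones stably expressing human wtAXL (puromycin-selected) were exposed to serially diluted compounds for 2 h. AXL was immunoprecipitated from lysates with anti-AXL antibody, and phosphorylation detected by anti-phosphotyrosine (4G10) western blot with ECL.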

COc1cc2nccc(Oc3ccc(NS(=O)(=O)c4cc(F)ccc4F)c(C)c3)c2cc1OC [Example A151, N-[4-(6,7-Dimethoxy-quinolin-4-yloxy)-2-methyl-phenyl]-2,5-difluoro-benzenesulfonamide]
melting point: 259 to 260 °C | IC50 [1]: > 10 µM

COc1cc2nccc(Oc3ccc(NS(=O)(=O)c4ccc(Br)c(Cl)c4)c(C)c3)c2cc1OC [Example A152, 4-Bromo-3-chloro-N-[4-(6,7-dimethoxy-quinolin-4-yloxy)-2-methyl-phenyl]-benzenesulfonamide]
melting point: 212 to 213 °C | IC50 [1]: > 10 µM

COc1cc2nccc(Oc3ccc(NS(=O)(=O)c4ccc(Cl)cc4F)c(C)c3)c2cc1OC [Example A153, 4-Chloro-N-[4-(6,7-dimethoxy-quinolin-4-yloxy)-2-methyl-phenyl]-2-fluoro-benzenesulfonamide]
melting point: 248 to 250 °C | IC50 [1]: > 10 µM

COc1cc(S(=O)(=O)Nc2ccc(Oc3ccnc4cc(OC)c(OC)cc34)cc2C)ccc1F [Example A154, N-[4-(6,7-Dimethoxy-quinolin-4-yloxy)-2-methyl-phenyl]-4-fluoro-3-methoxy-benzenesulfonamide]
melting point: 228 to 229 °C | IC50 [1]: > 10 µM

COc1cc2nccc(Oc3ccc(NS(=O)(=O)c4cc(Cl)c(O)c(Cl)c4)cc3)c2cc1OC [Example A155, 3,5-Dichloro-N-[4-(6,7-dimethoxy-quinolin-4-yloxy)-phenyl]-4-hydroxy-benzenesulfonamide]
melting point: > 260 °C | IC50 [1]: > 3 µM

COc1cc2nccc(Oc3ccc(NS(=O)(=O)c4cc(Cl)cc(Cl)c4O)cc3OC)c2cc1OC [Example A156, 3,5-Dichloro-N-[4-(6,7-dimethoxy-quinolin-4-yloxy)-3-methoxy-phenyl]-2-hydroxy-benzenesulfonamide]
melting point: > 240 °C | IC50 [1]: > 1 µM

Cc1cc(Oc2ccc(NS(=O)(=O)c3cccs3)c(F)c2)c2cc(F)ccc2n1 [Example B1, Thiophene-2-sulfonic acid [2-fluoro-4-(6-fluoro-2-methyl-quinolin-4-yloxy)-phenyl]-amide]
melting point: 166 to 167 °C | IC50 [1]: > 10 µM

Cc1cc(Oc2ccc(NS(=O)(=O)c3cccc(C#N)c3)c(F)c2)c2cc(F)ccc2n1 [Example B2, 3-Cyano-N-[2-fluoro-4-(6-fluoro-2-methyl-quinolin-4-yloxy)-phenyl]-benzenesulfonamide]
melting point: 190 to 191 °C | IC50 [1]: > 10 µM

COc1cccc(S(=O)(=O)Nc2ccc(Oc3cc(C)nc4ccc(F)cc34)cc2F)c1 [Example B3, N-[2-Fluoro-4-(6-fluoro-2-methyl-quinolin-4-yloxy)-phenyl]-3-methoxy-benzenesulfonamide]
melting point: 150 to 151 °C | IC50 [1]: 8 µM

Cc1cc(Oc2ccc(NS(=O)(=O)C3CC3)c(F)c2)c2cc(F)ccc2n1 [Example B4, Cyclopropanesulfonic acid [2-fluoro-4-(6-fluoro-2-methyl-quinolin-4-yloxy)-phenyl]-amide]
melting point: 189 to 190 °C | IC50 [1]: > 10 µM

Cc1cc(Oc2ccc(NS(=O)(=O)c3ccc(F)c(Cl)c3)c(F)c2)c2cc(F)ccc2n1 [Example B5, 3-Chloro-4-fluoro-N-[2-fluoro-4-(6-fluoro-2-methyl-quinolin-4-yloxy)-phenyl]-benzenesulfonamide]
melting point: 205 to 207 °C | IC50 [1]: > 10 µM

Cc1cc(Oc2ccc(NS(=O)(=O)c3c(F)cccc3F)c(F)c2)c2cc(F)ccc2n1 [Example B6, 2,6-Difluoro-N-[2-fluoro-4-(6-fluoro-2-methyl-quinolin-4-yloxy)-phenyl]-benzenesulfonamide]
melting point: 188 to 190 °C | IC50 [1]: > 10 µM

Cc1cc(Oc2ccc(NS(=O)(=O)c3ccc(C)s3)c(F)c2)c2cc(F)ccc2n1 [Example B7, 5-Methyl-thiophene-2-sulfonic acid [2-fluoro-4-(6-fluoro-2-methyl-quinolin-4-yloxy)-phenyl]-amide]
melting point: 151 to 153 °C | IC50 [1]: > 10 µM

Cc1cc(Oc2ccc(NS(=O)(=O)c3cccc(C(F)(F)F)c3)c(F)c2)c2cc(F)ccc2n1 [Example B8, N-[2-Fluoro-4-(6-fluoro-2-methyl-quinolin-4-yloxy)-phenyl]-3-trifluoromethyl-benzenesulfonamide]
melting point: 150 to 152 °C | IC50 [1]: > 10 µM

Cc1cc(Oc2ccc(NS(=O)(=O)c3ccccc3)cc2)c2cc(F)ccc2n1 [Example B9, N-[4-(6-Fluoro-2-methyl-quinolin-4-yloxy)-phenyl]-benzenesulfonamide]
melting point: 207 to 208 °C | IC50 [1]: > 10 µM

Cc1cc(Oc2ccc(NS(=O)(=O)c3cc(Cl)cc(Cl)c3)cc2)c2cc(F)ccc2n1 [Example B10, 3,5-Dichloro-N-[4-(6-fluoro-2-methyl-quinolin-4-yloxy)-phenyl]-benzenesulfonamide]
melting point: 238 to 240 °C | IC50 [1]: > 10 µM

COc1c(Cl)cc(Cl)cc1S(=O)(=O)Nc1ccc(Oc2cc(C)nc3ccc(F)cc23)cc1 [Example B11, 3,5-Dichloro-N-[4-(6-fluoro-2-methyl-quinolin-4-yloxy)-phenyl]-2-methoxy-benzenesulfonamide]
melting point: 192 to 193 °C | IC50 [1]: < 1 µM

Cc1cc(Oc2ccc(NS(=O)(=O)c3ccc(F)cc3F)cc2)c2cc(F)ccc2n1 [Example B12, 2,4-Difluoro-N-[4-(6-fluoro-2-methyl-quinolin-4-yloxy)-phenyl]-benzenesulfonamide]
melting point: 179 to 180 °C | IC50 [1]: > 10 µM

Cc1cc(Oc2ccc(NS(=O)(=O)c3cc(F)cc(F)c3)cc2)c2cc(F)ccc2n1 [Example B13, 3,5-Difluoro-N-[4-(6-fluoro-2-methyl-quinolin-4-yloxy)-phenyl]-benzenesulfonamid]
melting point: 194 to 195 °C | IC50 [1]: < 1 µM

Cc1cc(Oc2ccc(NS(=O)(=O)c3cccc(Br)c3)cc2)c2cc(F)ccc2n1 [Example B14, 3-Bromo-N-[4-(6-fluoro-2-methyl-quinolin-4-yloxy)-phenyl]-benzenesulfonamide]
melting point: 183 to 184 °C | IC50 [1]: < 1 µM

Cc1cc(Oc2ccc(NS(=O)(=O)c3ccc(Br)cc3C(F)(F)F)cc2)c2cc(F)ccc2n1 [Example B15, 4-Bromo-N-[4-(6-fluoro-2-methyl-quinolin-4-yloxy)-phenyl]-2-trifluoromethyl-benzenesulfonamide]
melting point: 191 to 193 °C | IC50 [1]: > 10 µM

Cc1cc(Oc2ccc(NS(=O)(=O)c3ccsc3)cc2)c2cc(F)ccc2n1 [Example B16, Thiophene-3-sulfonic acid [4-(6-fluoro-2-methyl-quinolin-4-yloxy)-phenyl]-amide]
melting point: 195 to 196 °C | IC50 [1]: > 10 µM

COC(=O)c1sccc1S(=O)(=O)Nc1ccc(Oc2cc(C)nc3ccc(F)cc23)cc1 [Example B17, 3-[4-(6-Fluoro-2-methyl-quinolin-4-yloxy)-phenylsulfamoyl]-thiophene-2-carboxylic acid methyl ester]
melting point: 160 to 161 °C | IC50 [1]: > 10 µM

Cc1cc(Oc2ccc(NS(=O)(=O)c3ccc(Cl)s3)cc2)c2cc(F)ccc2n1 [Example B18, 5-Chloro-thiophene-2-sulfonic acid [4-(6-fluoro-2-methyl-quinolin-4-yloxy)-phenyl]-amide]
melting point: 170 to 172 °C | IC50 [1]: > 10 µM

Cc1cc(Oc2ccc(NS(=O)(=O)c3ccc(-c4cnco4)s3)cc2)c2cc(F)ccc2n1 [Example B19, 5-Oxazol-5-yl-thiophene-2-sulfonic acid [4-(6-fluoro-2-methyl-quinolin-4-yloxy)-phenyl]-amide]
melting point: 164 to 166 °C | IC50 [1]: 8 µM

Cc1cc(Oc2ccc(NS(=O)(=O)c3cccc4ccccc34)cc2)c2cc(F)ccc2n1 [Example B20, Naphthalene-1-sulfonic acid [4-(6-fluoro-2-methyl-quinolin-4-yloxy)-phenyl]-amide]
melting point: 223 to 225 °C | IC50 [1]: > 10 µM

CCn1cc(S(=O)(=O)Nc2ccc(Oc3cc(C)nc4ccc(F)cc34)cc2)cn1 [Example B21, 1-Ethyl-1H-pyrazole-4-sulfonic acid [4-(6-fluoro-2-methyl-quinolin-4-yloxy)-phenyl]-amide]
melting point: 165 to 167 °C | IC50 [1]: > 10 µM

Cc1cc(Oc2ccc(NS(=O)(=O)c3cc(Cl)cc(Cl)c3O)cc2)c2cc(F)ccc2n1 [Example B22, 3,5-Dichloro-N-[4-(6-fluoro-2-methyl-quinolin-4-yloxy)-phenyl]-2-hydroxy-benzenesulfonamide]
melting point: 203 to 205 °C | IC50 [1]: 7 µM
